# Test results reported in article PMC8413292, “Small-molecule polymerase inhibitor protects non-human primates from measles and reduces shedding” (Nature Communications, 2021).
# Several values for one entry are separate records, joined by “and”; a condition that tells them apart may be missing. Identical values can stand only once.
# Test system: MeV N gene RNA
# Experiment: Quantitative RT-PCR of MeV N RNA in PBMCs
# Assay type: in vivo
# Description: Organs (21 days post-infection) and PBMCs (twice a week) were frozen in RNAlater (Qiagen) at −80 °C until further processing. For the deceased animal, organs were frozen in RNAlater at the day of death. Lymph nodes were thawed on ice, transferred to TRIzol (ambion life technologies) and homogenized using a tissue homogenizer. Total RNA of lymph nodes and PBMCs was extracted following the TRIzol manufacturer’s protocol. RNA (1000 ng for lymph nodes; 110 ng for PBMCs) was then subjected to reverse transcription using random hexamer primers and Superscript III reverse transcriptase in accordance with the manufacturer’s protocols. Subsequent quantitative PCR (qPCR) was carried out using primer pairs specific for a fragment in the MeV N gene[23] or GAPDH gene(Supplementary Table 2) and the PowerUp SYBR Green Master Mix (Thermo Fisher Scientific) in an Applied Biosystems 7500 Real-Time PCR system. Samples were normalized for GAPDH. The comparative (ΔΔCt) Ct method was applied to determine relative amounts of N-encoding RNA present in samples from treated animals compared to those obtained from untreated control animals (lymph nodes) or compared to those obtained from untreated control animals on day 7 post-infection (peak PBMC virus titer).
smiles,measurement,setting,value
Cn1nc(C(F)(F)F)cc1C(=O)Nc1ccc(S(=O)(=O)N2CCCC[C@H]2CCN2CCOCC2)cc1 [ERDRP-0519],"Supplemental Figure 3a source data, relative MeV N RNA in PBMCs, individual animals","therapeutic (d3), time (d) 0",-12.185 and -15.2199 and -11.755 and -14.0483 and -12.7958
same,"Supplemental Figure 3a source data, relative MeV N RNA in PBMCs, individual animals","therapeutic (d3), time (d) 3",-13.2368 and -9.809 and -12.089 and -11.8661 and -12.6935 and -12.7459
same,"Supplemental Figure 3a source data, relative MeV N RNA in PBMCs, individual animals","therapeutic (d3), time (d) 7",-6.7874 and -7.787 and -8.103 and -8.648 and -13.5153 and -10.39
same,"Supplemental Figure 3a source data, relative MeV N RNA in PBMCs, individual animals","therapeutic (d3), time (d) 10",-4.115 and -10.1748 and -9.33 and -8.711 and -14.231 and -9.172
same,"Supplemental Figure 3a source data, relative MeV N RNA in PBMCs, individual animals","therapeutic (d3), time (d) 14",-9.809 and -12.4589 and -12.5095 and -12.5754 and -8.538 and -13.3167
same,"Supplemental Figure 3a source data, relative MeV N RNA in PBMCs, individual animals","therapeutic (d3), time (d) 17",-10.29 and -10.5346 and -12.5229 and -11.5387 and -13.4468
same,"Supplemental Figure 3a source data, relative MeV N RNA in PBMCs, individual animals","therapeutic (d3), time (d) 21",-15.6913 and -17.4162 and -8.965 and -9.87 and -13.3809
same,"Supp. Figure 3a, relative MeV N RNA in PBMCs, group mean (Mean 2)","therapeutic (d7), Day 0",-11.48
same,"Supp. Figure 3a, relative MeV N RNA in PBMCs, group mean (Mean 2)","therapeutic (d7), Day 3",-11.42
same,"Supp. Figure 3a, relative MeV N RNA in PBMCs, group mean (Mean 2)","therapeutic (d7), Day 7",-3.189
same,"Supp. Figure 3a, relative MeV N RNA in PBMCs, group mean (Mean 2)","therapeutic (d7), Day 10",-4.318
same,"Supp. Figure 3a, relative MeV N RNA in PBMCs, group mean (Mean 2)","therapeutic (d7), Day 14",-7.135
same,"Supp. Figure 3a, relative MeV N RNA in PBMCs, group mean (Mean 2)","therapeutic (d7), Day 17",-8.639
same,"Supp. Figure 3a, relative MeV N RNA in PBMCs, group mean (Mean 2)","therapeutic (d7), Day 21",-9.558
same,"Supplemental Figure 3a source data, relative MeV N RNA in PBMCs, individual animals","therapeutic (d7), time (d) 0",-14.3685 and -13.0066 and -11.8077 and -7.512 and -11.9115 and -10.2528
same,"Supplemental Figure 3a source data, relative MeV N RNA in PBMCs, individual animals","therapeutic (d7), time (d) 3",-13.8644 and -13.9177 and -9.909 and -10.1407 and -11.3735 and -9.308
same,"Supplemental Figure 3a source data, relative MeV N RNA in PBMCs, individual animals","therapeutic (d7), time (d) 7",-0.7497 and -4.549 and -6.525 and -1.948 and -0.04871 and -5.313
same,"Supplemental Figure 3a source data, relative MeV N RNA in PBMCs, individual animals","therapeutic (d7), time (d) 10",-4.45
same,"Supp. Figure 3a, relative MeV N RNA in PBMCs, Mean Diff.","untreated vs. prophylactic, Day 0",-1.268
same,"Supp. Figure 3a, relative MeV N RNA in PBMCs, Mean Diff.","untreated vs. prophylactic, Day 3",0.4295
same,"Supp. Figure 3a, relative MeV N RNA in PBMCs, Mean Diff.","untreated vs. prophylactic, Day 7",11.48
same,"Supp. Figure 3a, relative MeV N RNA in PBMCs, Mean Diff.","untreated vs. prophylactic, Day 10",11.3
same,"Supp. Figure 3a, relative MeV N RNA in PBMCs, Mean Diff.","untreated vs. prophylactic, Day 14",6.945
same,"Supp. Figure 3a, relative MeV N RNA in PBMCs, Mean Diff.","untreated vs. prophylactic, Day 17",2.967
same,"Supp. Figure 3a, relative MeV N RNA in PBMCs, Mean Diff.","untreated vs. prophylactic, Day 21",0.4094
same,"Supp. Figure 3a, relative MeV N RNA in PBMCs, Mean Diff.","untreated vs. therapeutic (d3), Day 0",-0.325
same,"Supp. Figure 3a, relative MeV N RNA in PBMCs, Mean Diff.","untreated vs. therapeutic (d3), Day 3",0.4421
same,"Supp. Figure 3a, relative MeV N RNA in PBMCs, Mean Diff.","untreated vs. therapeutic (d3), Day 7",9.205
same,"Supp. Figure 3a, relative MeV N RNA in PBMCs, Mean Diff.","untreated vs. therapeutic (d3), Day 10",8.257
same,"Supp. Figure 3a, relative MeV N RNA in PBMCs, Mean Diff.","untreated vs. therapeutic (d3), Day 14",5.316
same,"Supp. Figure 3a, relative MeV N RNA in PBMCs, Mean Diff.","untreated vs. therapeutic (d3), Day 17",3.169
same,"Supp. Figure 3a, relative MeV N RNA in PBMCs, Mean Diff.","untreated vs. therapeutic (d3), Day 21",3.351
same,"Supp. Figure 3a, relative MeV N RNA in PBMCs, Mean Diff.","untreated vs. therapeutic (d7), Day 0",-2.049
same,"Supp. Figure 3a, relative MeV N RNA in PBMCs, Mean Diff.","untreated vs. therapeutic (d7), Day 3",-0.2124
same,"Supp. Figure 3a, relative MeV N RNA in PBMCs, Mean Diff.","untreated vs. therapeutic (d7), Day 7",3.189
same,"Supp. Figure 3a, relative MeV N RNA in PBMCs, Mean Diff.","untreated vs. therapeutic (d7), Day 10",3.285
same,"Supp. Figure 3a, relative MeV N RNA in PBMCs, Mean Diff.","untreated vs. therapeutic (d7), Day 14",0.916
same,"Supp. Figure 3a, relative MeV N RNA in PBMCs, Mean Diff.","untreated vs. therapeutic (d7), Day 17",0.1414
same,"Supp. Figure 3a, relative MeV N RNA in PBMCs, Mean Diff.","untreated vs. therapeutic (d7), Day 21",-0.1552
